Laboratory results published in the supplement of paper PMC10307832.

How the values were obtained:
Assay in all cases: relative viability (nuclei count vs DMSO), 5 days (fraction); higher = more cells survive
Ruxolitinib + Vorinostat = compound: N#CC[C@H](C1CCCC1)n1cc(-c2ncnc3[nH]ccc23)cn1 [Ruxolitinib] + O=C(CCCCCCC(=O)Nc1ccccc1)NO [Vorinostat] (partner 1 µM)
Summary of the method: (§1)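 Each reported value is a median over duplicate plates. It expresses relative viability: treated-well nuclei count divided by vehicle-well nuclei count. Lung cancer cell lines in 1536-well plates were dosed by pin tool a day after seeding, alone with one drug or with a fixed anchor-drug dose plus five library-drug doses (not always all listed) in √10 steps, and nuclei were counted after 5 days.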

Vismodegib + Palbociclib = compound: CS(=O)(=O)c1ccc(C(=O)Nc2ccc(Cl)c(-c3ccccn3)c2)c(Cl)c1 [Vismodegib] + CC(=O)c1c(C)c2cnc(Nc3ccc(N4CCNCC4)cn3)nc2n(C2CCCC2)c1=O [Palbociclib] (partner 0.5 µM)
Summary of the method: as §1

VE-821 + Crizotinib = compound: CS(=O)(=O)c1ccc(-c2cnc(N)c(C(=O)Nc3ccccc3)n2)cc1 [VE-821] + C[C@@H](Oc1cc(-c2cnn(C3CCNCC3)c2)cnc1N)c1c(Cl)ccc(F)c1Cl [Crizotinib] (partner 1 µM)
Summary of the method: as §1

## EKVX
Ruxolitinib + Vorinostat; first compound 0.08 µM
  relative viability: 0.57
Ruxolitinib + Vorinostat; first compound 0.253 µM
  relative viability: 0.744
Ruxolitinib + Vorinostat; first compound 0.8 µM
  relative viability: 0.719
Ruxolitinib + Vorinostat; first compound 2.53 µM
  relative viability: 0.628
Ruxolitinib + Vorinostat; first compound 8 µM
  relative viability: 0.588
Vismodegib + Palbociclib; first compound 0.253 µM
  relative viability: 0.38
Vismodegib + Palbociclib; first compound 0.8 µM
  relative viability: 0.392
Vismodegib + Palbociclib; first compound 2.53 µM
  relative viability: 0.325
Vismodegib + Palbociclib; first compound 8 µM
  relative viability: 0.433
VE-821 + Crizotinib; first compound 0.08 µM
  relative viability: 1.25
VE-821 + Crizotinib; first compound 0.253 µM
  relative viability: 0.93
VE-821 + Crizotinib; first compound 0.8 µM
  relative viability: 0.849
VE-821 + Crizotinib; first compound 2.53 µM
  relative viability: 0.958
VE-821 + Crizotinib; first compound 8 µM
  relative viability: 0.878

## HARA
Ruxolitinib + Vorinostat; first compound 0.08 µM
  relative viability: 0.594
Ruxolitinib + Vorinostat; first compound 0.253 µM
  relative viability: 0.576
Ruxolitinib + Vorinostat; first compound 0.8 µM
  relative viability: 0.566
Ruxolitinib + Vorinostat; first compound 2.53 µM
  relative viability: 0.488
Ruxolitinib + Vorinostat; first compound 8 µM
  relative viability: 0.512
Vismodegib + Palbociclib; first compound 0.08 µM
  relative viability: 0.284
Vismodegib + Palbociclib; first compound 0.253 µM
  relative viability: 0.245
Vismodegib + Palbociclib; first compound 0.8 µM
  relative viability: 0.221
Vismodegib + Palbociclib; first compound 2.53 µM
  relative viability: 0.303
Vismodegib + Palbociclib; first compound 8 µM
  relative viability: 0.27
VE-821 + Crizotinib; first compound 0.08 µM
  relative viability: 1.36
VE-821 + Crizotinib; first compound 0.253 µM
  relative viability: 1.07
VE-821 + Crizotinib; first compound 0.8 µM
  relative viability: 1.06
VE-821 + Crizotinib; first compound 2.53 µM
  relative viability: 1.07
VE-821 + Crizotinib; first compound 8 µM
  relative viability: 0.903

## LXF-289
Ruxolitinib + Vorinostat; first compound 0.08 µM
  relative viability: 0.744
Ruxolitinib + Vorinostat; first compound 0.253 µM
  relative viability: 0.818
Ruxolitinib + Vorinostat; first compound 0.8 µM
  relative viability: 0.793
Ruxolitinib + Vorinostat; first compound 2.53 µM
  relative viability: 0.714
Ruxolitinib + Vorinostat; first compound 8 µM
  relative viability: 0.705
Vismodegib + Palbociclib; first compound 0.08 µM
  relative viability: 0.582
Vismodegib + Palbociclib; first compound 0.253 µM
  relative viability: 0.605
Vismodegib + Palbociclib; first compound 0.8 µM
  relative viability: 0.595
Vismodegib + Palbociclib; first compound 2.53 µM
  relative viability: 0.594
Vismodegib + Palbociclib; first compound 8 µM
  relative viability: 0.6
VE-821 + Crizotinib; first compound 0.08 µM
  relative viability: 0.919
VE-821 + Crizotinib; first compound 0.253 µM
  relative viability: 0.812
VE-821 + Crizotinib; first compound 0.8 µM
  relative viability: 0.9
VE-821 + Crizotinib; first compound 2.53 µM
  relative viability: 0.933
VE-821 + Crizotinib; first compound 8 µM
  relative viability: 0.912

## NCI-H650
Ruxolitinib + Vorinostat; first compound 0.08 µM
  relative viability: 0.532
Ruxolitinib + Vorinostat; first compound 0.253 µM
  relative viability: 0.423
Ruxolitinib + Vorinostat; first compound 0.8 µM
  relative viability: 0.406
Ruxolitinib + Vorinostat; first compound 2.53 µM
  relative viability: 0.44
Ruxolitinib + Vorinostat; first compound 8 µM
  relative viability: 0.429
Vismodegib + Palbociclib; first compound 0.08 µM
  relative viability: 0.359
Vismodegib + Palbociclib; first compound 0.253 µM
  relative viability: 0.323
Vismodegib + Palbociclib; first compound 0.8 µM
  relative viability: 0.309
Vismodegib + Palbociclib; first compound 2.53 µM
  relative viability: 0.338
Vismodegib + Palbociclib; first compound 8 µM
  relative viability: 0.341
VE-821 + Crizotinib; first compound 0.08 µM
  relative viability: 0.969
VE-821 + Crizotinib; first compound 0.253 µM
  relative viability: 0.969
VE-821 + Crizotinib; first compound 0.8 µM
  relative viability: 0.675
VE-821 + Crizotinib; first compound 2.53 µM
  relative viability: 0.889
VE-821 + Crizotinib; first compound 8 µM
  relative viability: 0.642

## NCI-H647
Ruxolitinib + Vorinostat; first compound 0.08 µM
  relative viability: 0.694
Ruxolitinib + Vorinostat; first compound 0.253 µM
  relative viability: 0.729
Ruxolitinib + Vorinostat; first compound 0.8 µM
  relative viability: 0.683
Ruxolitinib + Vorinostat; first compound 2.53 µM
  relative viability: 0.538
Ruxolitinib + Vorinostat; first compound 8 µM
  relative viability: 0.286
Vismodegib + Palbociclib; first compound 0.08 µM
  relative viability: 0.328
Vismodegib + Palbociclib; first compound 0.253 µM
  relative viability: 0.409
Vismodegib + Palbociclib; first compound 0.8 µM
  relative viability: 0.463
Vismodegib + Palbociclib; first compound 2.53 µM
  relative viability: 0.354
Vismodegib + Palbociclib; first compound 8 µM
  relative viability: 0.452
VE-821 + Crizotinib; first compound 0.08 µM
  relative viability: 1.11
VE-821 + Crizotinib; first compound 0.253 µM
  relative viability: 1.05
VE-821 + Crizotinib; first compound 0.8 µM
  relative viability: 1.02
VE-821 + Crizotinib; first compound 2.53 µM
  relative viability: 0.935
VE-821 + Crizotinib; first compound 8 µM
  relative viability: 0.42

## NCI-H3122
Ruxolitinib + Vorinostat; first compound 0.08 µM
  relative viability: 0.886
Ruxolitinib + Vorinostat; first compound 0.253 µM
  relative viability: 1.12
Ruxolitinib + Vorinostat; first compound 0.8 µM
  relative viability: 1.13
Ruxolitinib + Vorinostat; first compound 2.53 µM
  relative viability: 0.962
Ruxolitinib + Vorinostat; first compound 8 µM
  relative viability: 1.02
Vismodegib + Palbociclib; first compound 0.08 µM
  relative viability: 0.173
Vismodegib + Palbociclib; first compound 0.253 µM
  relative viability: 0.191
Vismodegib + Palbociclib; first compound 0.8 µM
  relative viability: 0.167
Vismodegib + Palbociclib; first compound 2.53 µM
  relative viability: 0.18
Vismodegib + Palbociclib; first compound 8 µM
  relative viability: 0.19
VE-821 + Crizotinib; first compound 0.08 µM
  relative viability: 0.283
VE-821 + Crizotinib; first compound 0.253 µM
  relative viability: 0.281
VE-821 + Crizotinib; first compound 0.8 µM
  relative viability: 0.32
VE-821 + Crizotinib; first compound 2.53 µM
  relative viability: 0.356
VE-821 + Crizotinib; first compound 8 µM
  relative viability: 0.331

## PC-3 [JPC-3]
Ruxolitinib + Vorinostat; first compound 0.253 µM
  relative viability: 0.778
Ruxolitinib + Vorinostat; first compound 0.8 µM
  relative viability: 0.809
Ruxolitinib + Vorinostat; first compound 2.53 µM
  relative viability: 0.875
Ruxolitinib + Vorinostat; first compound 8 µM
  relative viability: 0.696
Vismodegib + Palbociclib; first compound 0.08 µM
  relative viability: 0.522
Vismodegib + Palbociclib; first compound 0.253 µM
  relative viability: 0.547
Vismodegib + Palbociclib; first compound 0.8 µM
  relative viability: 0.511
Vismodegib + Palbociclib; first compound 2.53 µM
  relative viability: 0.506
Vismodegib + Palbociclib; first compound 8 µM
  relative viability: 0.572
VE-821 + Crizotinib; first compound 0.08 µM
  relative viability: 1.06
VE-821 + Crizotinib; first compound 0.253 µM
  relative viability: 0.968
VE-821 + Crizotinib; first compound 0.8 µM
  relative viability: 1.1
VE-821 + Crizotinib; first compound 2.53 µM
  relative viability: 0.98
VE-821 + Crizotinib; first compound 8 µM
  relative viability: 0.963

## NCI-H1355
Ruxolitinib + Vorinostat; first compound 0.08 µM
  relative viability: 0.69
Ruxolitinib + Vorinostat; first compound 0.253 µM
  relative viability: 0.564
Ruxolitinib + Vorinostat; first compound 0.8 µM
  relative viability: 0.691
Ruxolitinib + Vorinostat; first compound 2.53 µM
  relative viability: 0.6
Ruxolitinib + Vorinostat; first compound 8 µM
  relative viability: 0.536
Vismodegib + Palbociclib; first compound 0.08 µM
  relative viability: 0.391
Vismodegib + Palbociclib; first compound 0.253 µM
  relative viability: 0.441
Vismodegib + Palbociclib; first compound 0.8 µM
  relative viability: 0.384
Vismodegib + Palbociclib; first compound 2.53 µM
  relative viability: 0.413
Vismodegib + Palbociclib; first compound 8 µM
  relative viability: 0.433
VE-821 + Crizotinib; first compound 0.08 µM
  relative viability: 1.22
VE-821 + Crizotinib; first compound 0.253 µM
  relative viability: 1.11
VE-821 + Crizotinib; first compound 0.8 µM
  relative viability: 0.993
VE-821 + Crizotinib; first compound 2.53 µM
  relative viability: 1.04
VE-821 + Crizotinib; first compound 8 µM
  relative viability: 0.768

## NCI-H838
Ruxolitinib + Vorinostat; first compound 0.08 µM
  relative viability: 0.734
Ruxolitinib + Vorinostat; first compound 0.253 µM
  relative viability: 0.669
Ruxolitinib + Vorinostat; first compound 0.8 µM
  relative viability: 0.685
Ruxolitinib + Vorinostat; first compound 2.53 µM
  relative viability: 0.535
Ruxolitinib + Vorinostat; first compound 8 µM
  relative viability: 0.349
Vismodegib + Palbociclib; first compound 0.08 µM
  relative viability: 0.214
Vismodegib + Palbociclib; first compound 0.253 µM
  relative viability: 0.225
Vismodegib + Palbociclib; first compound 0.8 µM
  relative viability: 0.227
Vismodegib + Palbociclib; first compound 2.53 µM
  relative viability: 0.261
Vismodegib + Palbociclib; first compound 8 µM
  relative viability: 0.273
VE-821 + Crizotinib; first compound 0.08 µM
  relative viability: 0.96
VE-821 + Crizotinib; first compound 0.253 µM
  relative viability: 0.721
VE-821 + Crizotinib; first compound 0.8 µM
  relative viability: 0.688
VE-821 + Crizotinib; first compound 2.53 µM
  relative viability: 0.875
VE-821 + Crizotinib; first compound 8 µM
  relative viability: 0.757
